In patent publication EP0414895A1, “OROTATE OF $g(a)-AMINO-$g(b)-PHENYL-BUTYRIC ACID” (NAUCHNO-PROIZVODSTVENNOE OBIEDINENIE "BIOLAR", priority 1989, dated 1990):

Assays:
Assay type in all cases: in vivo
[1] = system: Mäuse; experiment: Hypoxia in barochamber (11000 m), survival
Protocol: Nach einer der Methoden wurden die Mäuse in der Barokammer untergebracht, die für die Höhe von II000 m über dem Meeresspiegel gehoben wurde. Die Hebung wurde mit einer Geschwindigkeit von 50 m/s verwirklicht. Der atmosphärische Tiefdruck wurde mit Hilfe der elektrischen Vakuumpumpe geschaffen.
Die beanspruchte Verbindung, Natriumoxybutyrat und Pyrazetam wurden 60 min vor dem Versuch enteral eingeführt. Der Schutzeffekt wurde nach der Überlebensdauer eingeschätzt. Die Angaben sind in Tabelle I0 angeführt.

[2] = system: Mäuse; experiment: Hemic hypoxia by intraperitoneal Natriumnitrit, survival; settings: Natriumnitrit 200 mg/kg i.p. 15 min after compound
Protocol: Die gemische Hypoxie wurde durch die intraperitoneale und subkutane Verabreichung von Natriumnitrit in einer Dosis von 200 mg/kg den Gruppen zu I0 […] I5 min nach der Einführung der Prüfverbindungen erzeugt. Die Angaben sind in der Tabelle I2 (bei der intraperitonealen Einführung von Natriumnitrit) und Tabelle I3 (bei der subkutanen Einführung von Natriumnitrit) angeführt.

[3] = system: Mäuse; experiment: Motor and orientation activity in photoelectric actometer; settings: counted 60 min from 10 min after dosing
Excerpt: Zur Bestimmung der sedativen Wirksamkeit wurde die motorische und Orientierungsaktivität und die motorische Fähigkeit in Versuchen an Mäusen und Ratten untersucht.
Den Versuchstieren wurden die beanspruchte Verbindung, γ -Amino- β -phenylbuttersäurehydrochlorid und Pyrazetam eingeführt. Als Kontrolle diente die physiologische Lösung (0,9%ige NaCl-Lösung). Die Untersuchungen wurden an I0 bis I2 erwachsenen Tieren (Mäuse, Ratten) durchgeführt.
Bei der Bestimmung der motorischen und Orientierungsaktivität wurde jede Maus in einer Einzelkamner des photoelektrischen Aktometers untergebracht. Die motorische und Orientierungsaktivität wurde nach der Zahl der Impulse bestimmt, die beim Berühren der Aktometerkontakte durch das Tier entstanden. Das Zählen der Im pulse wurde I0 min nach der intraperitonealen Einführung der genannten Verbindungen begonnen und dauerte innerhalb von 60 min. Die Angaben sind in der Tabelle I angeführt.

[4] = system: Mäuse; experiment: Thresholds of emotional reactivity and aggressiveness on electric pain stimulation, mice
Excerpt: Es wurde auch die emotionelle Aktivität und Aggressivität der Tiere auf dem Wege der elektrischen Schmerzreizung untersucht.
In einer Kammer von 20 x 20 x 25 cm Ausmass, deren Boden - ein Metallgitter aus Stangen darstellt, wurde ein Paar Tiere untergebracht (männliche Mäuse) und es wurde der Wechselstrom durchgelassen. Die Spannung wurde dosenartig auf 5 V solange erhöht, bis der Strom das Piepsen (die Schwelle der emotionellen Reaktivität) und die Schlägerei der Tiere (die Schwelle der Aggressivität) auslöste. Jede Spannungsgrösse wurde innerhalb von 5 sec zweimal in einem Zeitabstand von 20 bis 50 Sekunden aufrechterhalten. Die Kontrolle des Benehmens der Tiere begann man I0 Minuten nach der Einführung der oben erwähnten Verbindungen. Die Angaben sind in Tabellen 3, 4 angeführt.

[5] = system: Ratten; experiment: Thresholds of emotional reactivity and aggressiveness on electric pain stimulation, rats; settings: 100,0 mg/kg
[6] = system: Mäuse; experiment: Phenamin-induced hypermotility in actometer; settings: 500 mg/kg + Phenamin 5 mg/kg i.p. 10 min later
Protocol: Eis wurde die Wirkung der beanspruchten Verbindung auf den durch Phenamin ausgelöston Effekt der Veränderung der Hypermotorik untersucht. Phenamin wurde den Mäusen intraperitoneal in Dosen von 3 und 5 mg/kg I0 Minuten nach der enteralen oder intraperitonealen Einführung der beanspruchten Verbindung und des Pyrazetams eingeführt. Die Tiere wurden in der Kammer des photoelektrischen Aktometers untergebracht. Die motorische Aktivität wurde nach der Zahl der Impulse innerhalb von 60 Minuten bestimmt. Die Angaben sind in der Tabelle 6 angeführt.

[7] = system: Mäuse; experiment: Hypoxia in hermetically closed vessel, survival; settings: closed vessel 80 cm³
Excerpt: Nach der zweiten Methode wurden die Mäuse in einem hermetisch verschlossenen Gefäss von 80 cm³ Inhalt untergebracht, dabei wurde die Luft nicht abgesaugt, und es wurden keine CO₂-Sorptionsmittel zugegeben. Die Prüfverbindungen wurden I Stunde vor dem Beginn des Versuchs intraperitoneal eingeführt (siehe Tabelle II).

[8] = system: Ratten; experiment: Natriumäthaminal intoxication, sleep duration, rats; settings: 500 mg/kg single + Natriumäthaminal 100 mg/kg i.p.
Protocol: Ausserdem wurde die Wirkung der beanspruchten Verbindung auf die durch Natriumäthaminal erzeugte Intoxikation untersucht. Die Versuche wurden an männlichen Mäusen und Ratten in Gruppen zu 8 bis I0 Tieren angestellt. Natriumäthaminal wurde intraperitoneal in einner Dosis von I00 mg/kg I5 min nach der enteralen Verabreichung der beanspruchten Verbindung oder der Kontrollarzneimittel eingeführt. Es wurde die einmalige und chronische Einwirkung (während I2 bis I4 Tage einmal täglich) von der neuen Verbindung, γ -Amino- β - -phenylbuttersäurehydrochlorid und Pyrazetam untersucht. Es wurde die Dauer der Seitenlage - des Schlafs der Tiere bestimmt. Die Ergebnisse dieser Untersuchung sind in Tabelle 23 (für Mäuse) und 24 (für Ratten) angeführt.

[9] = 100,0 mg/kg enteral 60 min before

## O=C(O)CCCO [Natriumoxybutyrat]
[1]; [9]
  Überlebensdauer: 7,1±2,3 min
[1]; 200,0 mg/kg enteral 60 min before
  Überlebensdauer: 10,1±1,9 min
[2]; 100,0 mg/kg
  Überlebensdauer: 28,4±2,8 min
[2]; 200,0 mg/kg
  Überlebensdauer: 43,0±2,3 min

## NC(=O)CN1CCCC1=O [Pyrazetam, I-Karbamidomethylpyrrolidon-2]
[3]; 100 mg/kg i.p.
  Anzahl der Impulse im Aktometer: 342±18
[3]; 500 mg/kg i.p.
  Anzahl der Impulse im Aktometer: 338±24
[3]; 1000 mg/kg i.p.
  Anzahl der Impulse im Aktometer: 288±28
[4]; 100 mg/kg
  Spannung in V, Schwelle der Agressivität: 28,4±2,4 V
[4]; 1000 mg/kg
  Spannung in V, Schwelle der Agressivität: 26,7±2,5 V
  Spannung in V, Schwelle der emotionellen Reaktivität: 20,7±2,4 V
[5]
  Spannung in V, die Schwelle der emotionnellen Reaktivität: 25,7±0,8 V
[6]
  Anzahl der Impulse im Aktometer innerhalb von 60 min: 1872±66
[1]; [9]
  Überlebensdauer: 3,4±0,6 min
[1]; 500,0 mg/kg enteral 60 min before
  Überlebensdauer: 5,5±1,8 min
[1]; 1000,0 mg/kg enteral 60 min before
  Überlebensdauer: 7,2±1,4 min
[7]; 100,0 mg/kg i.p. 1 h before
  Überlebensdauer: 9,6±1,2 min
[7]; 500,0 mg/kg i.p. 1 h before
  Überlebensdauer: 11,8±2,1 min
[7]; 1000,0 mg/kg i.p. 1 h before
  Überlebensdauer: 13,6±1,8 min
[2]; 100,0 mg/kg
  Überlebensdauer: 26,7±2,2 min
[2]; 500,0 mg/kg
  Überlebensdauer: 34,2±3,6 min
[2]; 1000,0 mg/kg
  Überlebensdauer: 38,8±4,2 min
[8]
  Schlafdauer: 204,6±21 min
